Test results: ChEMBL document CHEMBL1148595, “Identification of Darmstoff analogs as selective agonists and antagonists of lysophosphatidic acid receptors” (Bioorg Med Chem Lett, 2006)

Tests used:
[1] = target: Autotaxin (Homo sapiens, UniProt Q13822); assay: Inhibition of lysophospholipase D autotaxin; set-up: concentration or dose not given beside the values; settings: for residual activity: values are per cent of control
[2] = target: Lysophosphatidic acid receptor 1 (Rattus norvegicus, UniProt P61794); assay: Activity at LPA1 receptor in RH7777 rat hepatoma cell line
[3] = target: Lysophosphatidic acid receptor 2 (Homo sapiens, UniProt Q9HBW0); assay: Activity at LPA2 receptor in RH7777 rat hepatoma cell line; format: cell-based
[4] = target: T1, Peroxisome proliferator-activated receptor gamma (Homo sapiens) (UniProt P37231); assay: PPARgamma activation in CV1 cells; format: cell-based; settings: CV-1, filed as agonist
T1 sequence (whole entry): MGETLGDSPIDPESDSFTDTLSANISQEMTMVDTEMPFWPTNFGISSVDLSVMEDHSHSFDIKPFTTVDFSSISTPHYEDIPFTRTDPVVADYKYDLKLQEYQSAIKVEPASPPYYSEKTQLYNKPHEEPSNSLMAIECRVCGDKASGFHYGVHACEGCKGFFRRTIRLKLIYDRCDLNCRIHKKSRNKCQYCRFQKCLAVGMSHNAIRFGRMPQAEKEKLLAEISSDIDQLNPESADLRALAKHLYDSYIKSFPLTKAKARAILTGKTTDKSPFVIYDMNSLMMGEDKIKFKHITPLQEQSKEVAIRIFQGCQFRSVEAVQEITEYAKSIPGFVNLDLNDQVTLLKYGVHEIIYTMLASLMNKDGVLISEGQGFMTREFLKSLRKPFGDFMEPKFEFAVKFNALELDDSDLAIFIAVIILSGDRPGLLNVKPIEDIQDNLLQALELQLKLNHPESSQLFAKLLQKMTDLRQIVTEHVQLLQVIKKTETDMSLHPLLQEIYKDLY

[5] = target: T2, Lysophosphatidic acid receptor 3 (Rattus norvegicus, UniProt Q8K5E0); assay: (§1) Activity at LPA3 receptor in RH7777 rat hepatoma cell line; format: cell-based
T2 sequence (Q8K5E0 whole entry): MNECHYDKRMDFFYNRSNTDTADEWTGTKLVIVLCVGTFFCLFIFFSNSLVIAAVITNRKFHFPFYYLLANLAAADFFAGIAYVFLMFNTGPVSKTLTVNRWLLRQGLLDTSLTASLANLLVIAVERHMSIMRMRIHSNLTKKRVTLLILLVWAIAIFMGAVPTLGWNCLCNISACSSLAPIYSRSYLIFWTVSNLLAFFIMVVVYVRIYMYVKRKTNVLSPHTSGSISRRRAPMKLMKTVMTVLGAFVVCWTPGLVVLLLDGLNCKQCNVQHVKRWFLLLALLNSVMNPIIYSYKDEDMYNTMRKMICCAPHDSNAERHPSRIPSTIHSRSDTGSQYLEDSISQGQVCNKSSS

[6] = target: T3, Lysophosphatidic acid receptor 3 (Rattus norvegicus) (UniProt Q8K5E0); assay: as §1; format: cell-based
T3 sequence (whole entry): T2 sequence (Q8K5E0 whole entry)

Sequence of Lysophosphatidic acid receptor 2 (Q9HBW0 whole entry): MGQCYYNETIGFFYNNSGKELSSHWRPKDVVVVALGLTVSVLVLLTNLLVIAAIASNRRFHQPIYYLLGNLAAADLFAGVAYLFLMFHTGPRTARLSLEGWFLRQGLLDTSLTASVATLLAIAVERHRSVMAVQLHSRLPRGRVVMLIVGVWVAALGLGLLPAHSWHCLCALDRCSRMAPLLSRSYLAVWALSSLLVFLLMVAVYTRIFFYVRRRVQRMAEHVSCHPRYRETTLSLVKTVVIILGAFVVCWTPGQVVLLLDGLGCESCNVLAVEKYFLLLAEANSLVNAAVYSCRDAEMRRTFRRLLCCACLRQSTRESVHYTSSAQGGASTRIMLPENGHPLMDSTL
Sequence of Lysophosphatidic acid receptor 1 (P61794 whole entry): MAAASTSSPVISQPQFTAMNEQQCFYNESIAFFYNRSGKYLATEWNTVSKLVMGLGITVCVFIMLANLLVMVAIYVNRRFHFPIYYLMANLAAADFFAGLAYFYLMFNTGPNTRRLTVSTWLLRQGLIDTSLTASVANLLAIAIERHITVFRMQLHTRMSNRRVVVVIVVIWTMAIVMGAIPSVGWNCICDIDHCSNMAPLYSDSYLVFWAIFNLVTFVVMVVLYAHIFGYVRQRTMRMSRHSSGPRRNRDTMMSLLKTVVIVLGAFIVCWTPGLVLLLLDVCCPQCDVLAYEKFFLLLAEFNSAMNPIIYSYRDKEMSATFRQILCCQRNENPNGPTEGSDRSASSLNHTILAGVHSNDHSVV

Compound | residual activity [1] [%] | IC50 [2] [nM] | Ki [2] [nM] | IC50 [3] [nM] | Ki [3] [nM] | Activity [4] | IC50 [1] [nM] | IC50 [5] [nM] | Ki [5] [nM] | EC50 [3] [nM] | Emax [3] [%] | EC50 [2] [nM] | Emax [6] [%] | EC50 [5] [nM]
CCCCCCCCCCCCC1OCC(COP(=O)(O)O)O1 (stereo unspecified) | 26 | 1110 | 652 | 7430 | 745 | Agonist |  |  |  |  |  |  |  | 
CCCCCCC/C=C/CCCCCCCC[C@@H]1OC[C@H](COP(=O)(O)O)O1 | 28 |  |  |  |  | Agonist | 97 | 136 | 83 | 1710 | 42 |  |  | 
CCCCCCC/C=C/CCCCCCCCC1OCC(COP(=O)(O)O)O1 (stereo unspecified) | 30 | 915 | 497 |  |  | Agonist | 141 |  |  | > 10000 |  |  |  | 
CCCCCCC/C=C/CCCCCCCC[C@@H]1OC[C@H](COP(O)(O)=S)O1 | 66 |  |  |  |  | Agonist | 344 |  |  | 1090 | 85 | 1410 | 113 | 194
CCCCCCC/C=C/CCCCCCCC[C@@H]1OC[C@@H](COP(O)(O)=S)O1 | 64 |  |  |  |  | Agonist | 363 |  |  | 1540 | 72 | 2260 | 102 | 204
CCCCCCC/C=C/CCCCCCCC[C@H]1OC[C@H](COP(=O)(O)O)O1 | 30 |  |  |  |  | Agonist | 120 |  |  | 1170 | 39 |  |  | 
CCCCCCC/C=C/CCCCCCCC[C@@H]1OC[C@@H](COP(=O)(O)O)O1 | 46 |  |  |  |  | Agonist | 238 | 484 | 241 | > 10000 |  | > 10000 |  | 
CCCCCCC/C=C/CCCCCCCC[C@H]1OC[C@H](COP(O)(O)=S)O1 | 74 |  |  |  |  | Agonist | 252 |  |  | 1300 | 77 | 1580 | 127 | 127
CCCCCCC/C=C/CCCCCCCCC1OCC(COP(O)(O)=S)O1 (stereo unspecified) | 51 |  |  |  |  | Agonist | 415 |  |  | 1170 | 87 | 981 | 73 | 639
CCCCCCCCc1ccc(CCCCCCC2OCC(COP(=O)(O)O)O2)cc1 (stereo unspecified) | 10 | 4660 | 1930 |  |  | Agonist | 106 | 504 | 171 |  |  |  |  | 
CCCCCCC/C=C/CCCCCCCC[C@H]1OC[C@@H](COP(=O)(O)O)O1 | 25 |  |  |  |  | Agonist | 178 | 209 | 77 |  |  |  |  | 
CCCCCCCCc1ccc(CCCCCCC2OCC(COP(O)(O)=S)O2)cc1 (stereo unspecified) | 55 |  |  |  |  | Agonist | 449 |  |  |  |  |  | 87 | 692
CCCCCCC/C=C/CCCCCCCC[C@H]1OC[C@@H](COP(O)(O)=S)O1 | 60 |  |  |  |  | Agonist | 403 |  |  | 1320 | 87 | 1560 | 78 | 265
C/C=C/C/C=C/C/C=C/CCCCCCCCC1OCC(COP(=O)(O)O)O1 (stereo unspecified) | 54 |  |  |  |  | Agonist | 803 |  |  | 1710 | 51 | 3600 | 29 | 7590
